# Measurements: publication PMC9305971, “Development of [^18F]AmBF3 Tetrazine for Radiolabeling of Peptides: Preclinical Evaluation and PET Imaging of [^18F]AmBF3-PEG7-Tyr^3-Octreotide in an AR42J Pancreatic Carcinoma Model” (Bioconjugate Chemistry, 2022)
# Read-outs that look alike come from different tables or passages of the source.
# Assays:
# [1] = Enzymatic stability in 50% human plasma-0.01 M PBS; type: in vitro ADME; conditions: 50% (v/v) human plasma-0.01 M PBS, 37 °C
# Procedure: Lipophilicity was determined with the shake-flask method as a distribution coefficient between 0.01 M PBS and octanol. Purified radiotracer [^18F]6 (10 μL, ∼200 kBq, 1.5 nmol), [^18F]14 (20 μL, ∼260 kBq, 125 pmol), or [^18F]15 (20 μL, 144 kBq, 67 pmol) in a polypropylene tube containing 1500–2000 μL of each in a 1:1 mixture (1-octanol, 0.02 M PBS, pH 7.4) was shaken mechanically (500 rpm, 10 min) and centrifuged (1000g, 5 min), and samples from each layer (400 μL, n = 4) were measured with a γ-counter. The log D7.4 was calculated as a distribution between the two layers at pH 7.4. [^18F]6 (10 MBq, 40 nmol) diluted with 0.01 M PBS at pH 7.4 (≤1% ethanol, 5300 μL) was incubated for 180 min. At selected time points (5, 30, 60, 90, 120, 150, and 180 min), a sample (100 μL) was injected to radio-HPLC. [^18F]14 and [^18F]15 (29 MBq, 10 nmol) diluted in 2000 μL of 0.01 M PBS (≤1% ethanol) were left to incubate. A sample of [^18F]14 (100 μL) after 9 hours and [^18F]15 at selected time points between 30 and 335 min were injected into HPLC (method A). [^18F]15 (0.6 MBq, 0.134 nmol, 200 μL) formulated in ≤5% EtOH-1 × PBS was added and incubated in 2000 μL of PBS-50% human plasma at 37 °C. A 100 μL sample (at 60, 120, 180, and 240 min, n = 2) was diluted with 200 μL of cold acetonitrile and centrifuged (10,000g, 5 min). […]
# [2] = test system: SSTR2-expressing rat pancreatic adenocarcinoma AR42J cells; test: Cell uptake assay; type: cell-based; conditions: 120 min
# Procedure: AR42J cells were grown to >90% confluence. One million cells/well were seeded overnight on 6-well plates. The growth media was removed, and the reaction media (1 mL) containing [^18F]14 (11 kBq, 10 pmol per well) or [^18F]15 (97 kBq, 40 pmol per well) was added. Additionally, cells were coincubated with 2.4 nmol per well of nonmodified octreotide for blocking of radiotracer uptake. Radioactivity in the free, membrane-bound, and internalized fractions was determined at designated time points (15, 30, 60, and 120 min) by treating the cells in a sequence of (1) ice-cold 0.01 M PBS, (2) glycine buffer, and (3) 1 M NaOH, respectively. The fractions were collected and measured with a γ-counter. The detailed protocol is given in the Supporting Information. […]
# where Acoct=radioactivity concentration of octanol and AcPBS=radioactivity concentration of PBS. The datapoints were presented as mean ± standard deviation.
# AR42J cell-uptake assay and mouse tumor model. Rat pancreatic tumor cell line AR42J that expresses SSTR2, was cultured at 37 °C in 95% relative humidity incubator containing 5% CO2. Cells grown to >90% confluence were used for either in vitro or in vivo experiments.
# One million cells/well were seeded overnight on 6-well plates. The growth media was removed and the medium (1 mL/well) containing [18F]14 (11 kBq, 10 pmol per well) or [18F]15 (97 kBq, 40 pmol per well) was added. For studying the specificity of the cell -uptake, a set of cells were co-incubated in the presence of 2.4 nmol per well of non -modified octreotide representative of blocking conditions (total volume ~1 mL). For determining the amount of the radiotracer in the free fraction, at the designated time-points (15, 30, 60 and 120 min) the incubated media were removed, collected to a 5 mL scintillation tube, cells were washed with 1 mL of cold 0.01 M PBS (1×PBS) and again the supernatant collected into the same scintillation tube. Membrane-bound fraction; ice-cold glycine buffer (1 mL) was added on the cells, incubated for 5 minutes on ice, supernatant removed (procedure repeated once more) and the cells washed with ice -cold 1×PBS, and all washing solutions were collected to the same scintillation tube. Internalized fraction; 1 M NaOH (1 mL) was added on the cells and left incubating at an ambient temperature for 10 min. The supernatant was removed, the wells were washed 2 × 1 mL of cold 0.01 M PBS, and the supernatants collected to the same microtube. The collected samples were measured with a gamma counter for measuring the counts per minute (CPM) of each fraction (n = 3). The internalization is presented in percent (%) normalized to the total radioactivity in all three
# [3] = Ex vivo biodistribution of [18F]14 and [18F]15; type: in vivo, Rj:NMRI-Foxn1^nu/nu mice; conditions: mouse, iv, 0.2 nmol; for tissue to tissue ratio at 1 h: Rj:NMRI-Foxn1^nu/nu, tumor (AR42J xenograft) / blood, total radioactivity, read-out: T/blood ratio; for tissue to tissue ratio at 1 h / tissue uptake at 1 h: 60 min post injection; for tissue uptake at 1 h / tissue uptake at 2 h: i.v.; for tissue uptake at 2 h: 120 min post injection
# Procedure: (§1) [^18F]14 and [^18F]15 in ≤4% ethanol–0.01 M PBS were administered intravenously (1.2 ± 0.0 and 2.0 ± 0.1 MBq, respectively, 0.2 nmol, 150 μL) to AR42J tumor-bearing Rj:NMRI-Foxn1^nu/nu mice. At predetermined time points (t = 30, 60, 120, and 240 min), animals were euthanized with CO2 asphyxiation and cervical dislocation, and then the organs were harvested, washed with water, and blotted dry, following with weighing and γ counting from which the % ID/g in tissues was determined.
# [4] = test system: AR42J xenografts; test: Ex vivo biodistribution of [18F]14 and [18F]15; type: in vivo, Rj:NMRI-Foxn1^nu/nu mice
# Procedure: as §1
structure (smiles),measurement,setting,value
C[C@@H](O)[C@@H]1NC(=O)[C@H](CCCCN)NC(=O)[C@@H](Cc2c[nH]c3ccccc23)NC(=O)[C@H](Cc2ccc(O)cc2)NC(=O)[C@@H](NC(=O)[C@@H](Cc2ccccc2)NC(=O)CCOCCOCCOCCOCCON=Cc2ccc(C(=O)NCCOCCOCCOCCNC(=O)OC3CCCc4cnnc(-c5ccc(CC(=O)NCC[N+](C)(C)C[B-](F)(F)F)cc5)c4CC3)cc2)CSSC[C@@H](C(=O)N[C@H](CO)[C@@H](C)O)NC1=O (stereo partly drawn) [[^18F]15],"enzymatic stability, time stable",[1],at least 180 min
same,"cell uptake, baseline","[2]; n = 3, % internalized",6.1 ± 0.6%
same,"cell uptake, blocking","[2]; n = 3, coincubation with excess octreotide",0.7 ± 0.1%
same,tissue to tissue ratio at 1 h,[3]; blocked,0.4
same,tissue to tissue ratio at 1 h,[3]; baseline,0.5
same,tissue uptake at 1 h,"[3]; baseline, read-out: blood",9.6 ± 3.3 %ID/g
same,tissue uptake at 1 h,"[3]; baseline, read-out: brain",0.3 ± 0.1 %ID/g
same,tissue uptake at 1 h,"[3]; baseline, read-out: gallbladder",9.1 ± 7 %ID/g
same,tissue uptake at 1 h,"[3]; baseline, read-out: heart",2.6 ± 0.6 %ID/g
same,tissue uptake at 1 h,"[3]; baseline, read-out: kidney",21 ± 4.5 %ID/g
same,tissue uptake at 1 h,"[3]; baseline, read-out: liver",19 ± 5.4 %ID/g
same,tissue uptake at 1 h,"[3]; baseline, read-out: lung",5.4 ± 2.3 %ID/g
same,tissue uptake at 1 h,"[3]; baseline, read-out: muscle",1.1 ± 0.9 %ID/g
same,tissue uptake at 1 h,"[3]; baseline, read-out: pancreas",1.6 ± 0.5 %ID/g
same,tissue uptake at 1 h,"[3]; baseline, read-out: skin",2.4 ± 0.9 %ID/g
same,tissue uptake at 1 h,"[3]; baseline, read-out: spleen",1.4 ± 0.3 %ID/g
same,tissue uptake at 1 h,"[3]; baseline, read-out: urine",~174 %ID/g
same,tissue uptake at 1 h,"[3]; blocked with octreotide, read-out: blood",7.2 ± 2.5 %ID/g
same,tissue uptake at 1 h,"[3]; blocked with octreotide, read-out: brain",0.2 ± 0.1 %ID/g
same,tissue uptake at 1 h,"[3]; blocked with octreotide, read-out: gallbladder",18.8 ± 10.3 %ID/g
same,tissue uptake at 1 h,"[3]; blocked with octreotide, read-out: heart",2.1 ± 0.5 %ID/g
same,tissue uptake at 1 h,"[3]; blocked with octreotide, read-out: kidney",15.9 ± 2.7 %ID/g
same,tissue uptake at 1 h,"[3]; blocked with octreotide, read-out: liver",11.8 ± 4.7 %ID/g
same,tissue uptake at 1 h,"[3]; blocked with octreotide, read-out: lung",3.6 ± 1.4 %ID/g
same,tissue uptake at 1 h,"[3]; blocked with octreotide, read-out: muscle",0.5 ± 0.1 %ID/g
same,tissue uptake at 1 h,"[3]; blocked with octreotide, read-out: pancreas",0.9 ± 0.5 %ID/g
same,tissue uptake at 1 h,"[3]; blocked with octreotide, read-out: skin",1.6 ± 0.2 %ID/g
same,tissue uptake at 1 h,"[3]; blocked with octreotide, read-out: spleen",0.9 ± 0.2 %ID/g
same,tissue uptake at 1 h,"[3]; blocked with octreotide, read-out: urine",303 ± 146 %ID/g
same,tissue uptake at 1 h,"[3]; large intestine with contents, baseline, read-out: L. I. (+cont.), large intestine",1 ± 0.7 %ID/g
same,tissue uptake at 1 h,"[3]; large intestine with contents, blocked with octreotide, read-out: L. I. (+cont.), large intestine",0.7 ± 0.3 %ID/g
same,tissue uptake at 1 h,"[3]; occipital bone, baseline, read-out: bone, occipital",0.9 ± 0.3 %ID/g
same,tissue uptake at 1 h,"[3]; occipital bone, blocked with octreotide, read-out: bone, occipital",1 ± 0.3 %ID/g
same,tissue uptake at 2 h,"[3]; occipital bone, read-out: bone, occipital",0.6 ± 0.1 %ID/g
same,tissue uptake at 1 h,"[3]; small intestine with contents, baseline, read-out: S. I. (+cont.), small intestines",3.6 ± 2.1 %ID/g
same,tissue uptake at 1 h,"[3]; small intestine with contents, blocked with octreotide, read-out: S. I. (+cont.), small intestines",5 ± 1.7 %ID/g
same,tissue uptake at 1 h,"[3]; stomach with contents, baseline, read-out: stomach (+cont.)",1.4 ± 0.8 %ID/g
same,tissue uptake at 1 h,"[3]; stomach with contents, blocked with octreotide, read-out: stomach (+cont.)",0.6 ± 0.1 %ID/g
same,tissue uptake at 1 h,"[3]; tibia bone, baseline, read-out: bone, tibia",1.1 ± 0.4 %ID/g
same,tissue uptake at 1 h,"[3]; tibia bone, blocked with octreotide, read-out: bone, tibia",0.8 ± 0.2 %ID/g
same,tissue uptake at 2 h,"[3]; tibia bone, read-out: bone, tibia",0.6 ± 0.4 %ID/g
same,tissue uptake at 1 h,"[3]; tumor, AR42J xenograft, baseline, read-out: tumor uptake",4.5 ± 1 %ID/g
same,tissue uptake at 1 h,"[3]; tumor, AR42J xenograft, blocked with octreotide, read-out: tumor uptake",3.1 ± 0.5 %ID/g
same,urine,"[4]; 60 min post injection, i.v., baseline",174.2 ± 73.4 % ID/g
same,defluorination in vivo (in words),[4]; judged from bone uptake,no indication of defluorination
